# In patent US5610185A, “Method for the treatment of hyperproliferative epithelial skin diseases by topical application of hydroxylated aromatic protein cross-linking compounds” (The United States of America as represented by the …, priority 1995, dated 1997):
# Entries after “also recorded” stand apart in the source; their conditions may differ.
# Assays:
# [1] = tested on: I-7 mouse squamous cell carcinoma cells; assay: Cornified envelope (cross-linked protein) assay, I-7 cells; type: cell-based; details: I-7 (carcinoma), 48 h, 0.1-1 mM
# Source text: (§1) FIG. 1. MC Increases Cross-linked Protein in Epidermal Cell Lines. Black squares represent HPV 18 human epithelial keratinocytes; black circles represent SV 40 infected human keratinocytes; black triangles represent (SQCC-Y1) cells; white triangles represent (SP-1) benign tumor mouse keratinocytes; white squares represent (308 cells) benign mouse keratinocytes; and white circles represent (I-7) cells mouse squamous cell carcinoma.
# (§2) Primary mouse keratinocytes were isolated from BALB/c newborn mouse skin. Primary keratinocytes, the benign neoplastic keratinocyte cell lines 308 and SP-1 (Strickland et al, Cancer Res., 48, 165-169, 1988) and the mouse squamous cell carcinoma line 1-7 (Greenhalgh et al., Proc. Natl. Acad. Sci., 87, 643-647, 1990) were grown in Eagle's minimal essential medium with 8% fetal calf serum (FCS) (chelexed) and penicillin 20 iu/ml, streptomycin 20 ug/ml (P/S). Unless otherwise indicated, the Ca^2+ concentration in medium was adjusted to 0.05 mM (Hennings et al., Cells, 19, 245-254, 1980). […]
# (§3) Cells were incubated with MC for 48 hours, then cross-linked protein was isolated and measured as described in Example 1.
# (§4) The assay measures insoluble cross-linked protein envelopes as described (Hough-Monroe et al. Analytical biochem., 199, 25-28, 1991), with modifications as follows. […] Absorbance of eluate was measured on a Titertek plate reader at 600 nm.
# [2] = tested on: primary mouse keratinocytes; assay: MTT cytotoxicity assay; type: cell-based; details: within 4 hours, medium with 1.4 mM Ca2+
# Method: FIGS. 3A and 3B. A: Time course for cornification of primary mouse keratinocytes in response to MC. Boxes represent […] Ca^2+, triangles represent 100 μM MC, 1.4 mM Ca^2+, and solid circles represent 1 mM MC, 1.4 mM Ca^2+. […] Cells were incubated in medium with 1.4 mM Ca^2+ and MC for 4 hours, then were incubated with MTT (0.5 mg/ml in medium) for a further 4 hours before determination of formazan production.
# MTT is a dye which is reduced by mitochondrial dehydrogenase enzymes to a blue formazan product. Ability of cells to reduce MTT can be used to measure cell viability (Mosmann T., J. Immunol. Methods, 65, 55-63, 1983). Cells were incubated in 96 well plates with or without MC for the indicated time, then were incubated for a further 4 hours with 0.5 mg/ml MTT. Medium was removed and 88.9% DMSO, 11.11% glycine buffer (100 mM glycine, 100 mM NaCL pH 10.5) was added to each well. Plates were shaken for 20 minutes to allow formazan dissolution, then absorbance was measured on a plate reader at 570 nm.
# [3] = tested on: SV 40 infected human keratinocytes; assay: Cornified envelope (cross-linked protein) assay, SV 40 infected keratinocytes; type: cell-based; details: 48 h, 0.1-1 mM
# Source text: as §1, §2, §3, §4
# [4] = tested on: primary mouse keratinocytes; assay: Growth inhibition (cell count), primary mouse keratinocytes; type: cell-based; details: Keratinocyte, 72 h, 25 μM MC, 3 days, read-out: cells that continued to grow
# Method: FIG. 4. Cross-linked Protein Production vs Growth Inhibition in Mouse Primary Keratinocytes. Cell growth is represented by black squares and cross-linked protein production by white squares. Results are ±SD (n=3) of one experiment, representative of three.
# Cells were seeded at low density and were treated with MC for 3 days. Cells were then counted and increase in cell number was compared to untreated controls, or cells were processed for cross-linked protein. (FIG. 4) Protein cross-linking was rapid, commencing within 4 hours at 1 mM in mouse primary keratinocytes, (FIG. 3A) and was accompanied by cell death, as measured by the MTT assay (FIG. 3B).
# [5] = Hori et al., J. Antibiot., 45, 280-282, 1992; cited from earlier work
# [6] = tested on: normal human epidermal keratinocytes from foreskin; assay: Cross-linking in primary normal human epidermal keratinocytes; type: cell-based; details: Keratinocyte, read-out: concentration for response in cross-linking
# Source text: The increased sensitivity of mouse primary keratinocytes for the cross-linking effect is not related to the normal phenotype. […] Hydroxylated aromatic protein crosslinking compounds induce the cross-linking of cell proteins into cornified envelope-like structures, causing cell death by a non-biological mechanism which emulates the normal differentiation program of epidermal keratinocytes. In addition to their growth inhibitory properties, the unique protein cross-linking ability of the class of compounds described in the instant invention proffers a new mechanism for the topical treatment of hyperproliferative diseases of the skin.
# [7] = tested on: SP-1 cell tumors grafted on athymic nude mice; assay: Grafted SP-1 cell tumor formation in nude mice; type: in vivo, mouse; details: topical MC, 1 mM and 100 mM; twice weekly for two weeks or 5 days each week for three weeks
# Method: FIGS. 10A and 10B. […] Numbers above bars denote the number of animals with tumors/the number of animals in the group. In panel A, MC was applied twice weekly for two weeks. In panel B, MC was applied on 5 days each week for three weeks.
# Skin grafting was performed on athymic nude mice using 0.5×10^6 SP-1 cells with 8×10^6 newborn SENCAR mouse dermal fibroblasts as described (Strickland et al., Carcinogenesis, 14, 205, 1993). Domes (plastic covers placed over the site of skin grafting) were removed one week after grafting, and after a further week, topical application of MC commenced. The agent was applied in 25 ul 90% acetone, 10% DMSO vehicle. Weekly, tumor measurements were recorded up to 5 weeks after grafting.
# Grafting was performed as described above. Tumors were measured using calipers at the termination of the experiment and tumors were fixed and sections were taken to confirm the tumor phenotype by microscopy.
# [8] = tested on: EGF receptor; assay: Western blot analysis of in vitro assay with EGF receptor; type: biochemical
smiles,measurement,setting,value
"COC(=O)C=Cc1cc(O)ccc1O [MC, methyl 2,5-dihydroxycinnamate]",cross-linked protein (envelope production),[1],induced crosslinked envelope production; also recorded: increased cross-linked protein in a dose-dependent manner
same,MTT reduction / cell death,[2],cell death; also recorded: Inhibits MTT Reduction
same,cross-linked protein (envelope production),[3],induced crosslinked envelope production; also recorded: increased cross-linked protein in a dose-dependent manner
same,activity at 25 µM,[4],20%
same,half life in serum,[5],short
same,minimal effective concentration,[6],≥ 250 µM
same,growth / formation of grafted SP-1 tumors,[7],inhibited the growth of tumors; also recorded: inhibits Grafted SP-1 cell Tumor Formation; also recorded: inhibit tumor formation
same,"MC-induced mobility retardation of the EGF receptor, effect of DTT","[8]; DTT, Western blot",did inhibit MC-induced mobility retardation of the EGF receptor
same,tyrosine kinase inhibition in presence of DTT,"[8]; effect of DTT on MC tyrosine kinase inhibition, in vitro",did not prevent tyrosine kinase inhibition
